One data set concerns human washed platelets. As to the kind of experiment: Platelet ROS release assay (DCFH-DA). Type of data set: cell-based. Particulars: luteolin 25 μM, BAY61-3606 63 nM. How it is done:
The assay was performed as previously reported with minor modifications ([Arthur et al., 2012]; [Ye et al., 2020]). Briefly, WPs (500 × 10^9/L) were labeled with 5 μM Fluo-3AM (Cat No. IF0150; Solarbio) or 10 μM DCFH-DA (Cat No. D6883; Sigma, St. Louis, MO, United States) at 37°C for 30 min protected from light. […] In addition, 1 mM CaCl2 and collagen or convulxin were added to start the reaction. […] A ROS probe via a fluorescent enzyme marker was added. O2 ^− and H2O2 were measured using 2 μM Amplex Red (Cat No. ST010; Beyotime Institute of Biotechnology, Shanghai, China) or 2 μM Dihydroethidium (DHE, Cat No. S0063; Beyotime Institute of Biotechnology, Shanghai, China). O2 ^− and H2O2 were analyzed using a Fluoroskan Ascent fluorometer (Thermo Fisher, Waltham, Massachusetts, United States).

A short description of a further data set: Tail bleeding in mice. The note with it: luteolin 35 μM/kg or aspirin i.p., 30 min after injection; vs DMSO. In kind it is in vivo, C57BL/6 mice. How it is done:
The tail break hemorrhage experiment in mice was performed as previously reported, with slight modifications ([Liu et al., 2012]). […] Before the experiment, the mouse tails were immersed in saline for 3 min at 37°C. Then, 30 min after injection, the tails were quickly cut off using a surgical knife blade and placed in saline at 37°C. The cutting site was 5 mm from the end of the tail tip. The bleeding time of the broken tails was observed and recorded.

Data set [1] has as its system mesenteric artery thrombosis. As to the kind of experiment: Ferric chloride-induced mesenteric thrombosis in mice. Type of data set: in vivo, C57BL/6 mice. The note with it: luteolin 35 μM/kg or aspirin 0.5 mM/kg i.p., 30 min before FeCl3. The method, then:
A method reported in the literature was used to observe mesenteric artery thrombosis in mice ([Bonnard and […], 2015]). […] The mice were anesthetized by an intraperitoneal injection of pentobarbital (45 mg/kg). They were given an intraperitoneal injection of DMSO, luteolin, or aspirin. They were also given an orbital vein injection of 5 μg/kg rhodamine (Cat No. 83697-250 MG; Sigma-Aldrich, St. Louis, MO, United States) ([Bonnard and […], 2015]), respectively. The mesenteric vessels were exposed by opening the abdominal cavity, and small mesenteric arteries with a diameter of approximately 150-250 μm were selected under the microscope. […] During thrombosis, images were taken every 1 min for the first 10 min and every 5 min after 10 min using an MSHOT MD50 camera (Micro Shot Technology Ltd., Guangzhou, China) and an Olympus ix73 microscope (Olympus Corp., Shinjuku, Japan). […] The size of the thrombus formation was calculated using ImageJ software.

Another data set concerns NOXs. As to the kind of experiment: NADPH oxidase (NOX) activity assay in platelet lysate. In kind it is cell-based, human. Particulars: convulxin (5 ng/mL)- and collagen (10 μg/mL)-induced; VAS2870 10 μM. How it is done:
MDA, SOD, GPx, and NADPH oxidase activity were measured as previously described ([Krotz et al., 2002]; [Paul et al., 2019]; [Pan et al., 2021]). After incubation and activation, the reaction was stopped by adding 10 mM EGTA. The platelets were pelleted by centrifugation at 20,000 × g for 10 min at 4°C and resuspended in Tyrode’s buffer with 0.1% phosphatase and protease inhibitors (Cat No. 04906837001, Roche Applied Science, Penzberg, Germany; Cat No. P-8340, Sigma, St. Louis, MO, United States). The platelets were disrupted by passing them 10 times through a 29-gauge needle, followed by centrifugation at 2000 × g for 10 min at 4°C to separate the supernatant and precipitate. The detection of MDA, SOD, and GPx in the supernatant was performed according to the kit’s instructions for SOD (Cat No. BC0170, Solarbio Life Science, Beijing, China), MDA (Cat No. S0131S, Beyotime Institute of Biotechnology, Shanghai, China) and GPx (Cat No. S0056, Beyotime Institute of Biotechnology, Shanghai, China). In order to determine NADPH oxidase (NOX) activity, platelet lysate (12.5 μg) was incubated with 10 µM lucigenin and 0.5 mM NADPH at 37°C in the dark. The absorbance values were detected at 450 nm using a spectrophotometer Multiskan FC (ThermoFisher Scientific Inc., Waltham, MA, United States). Protein content was determined by the Bradford method.

The text below walks through data of publication PMC10644720 (Frontiers in Pharmacology, 2023).

Each structure is given as a SMILES string.

As to `COc1ccc(-c2cc3nccn3c(Nc3ncccc3C(N)=O)n2)cc1OC` [BAY61-3606, reference compound], the “effect on platelet ROS release” value with human washed platelets (collagen (10 μg/mL)-induced) is recorded as “decreasing levels”; with human washed platelets (convulxin (5 ng/mL)-induced) it was “decreased”.
As for `CC(=O)Oc1ccccc1C(=O)O` [aspirin, reference compound], the tail bleeding time result in the data set “Tail bleeding in mice” was “significantly prolonged”. Also, in data set [1], the “time of clot obstruction of blood vessels” value is listed as “significantly prolong” and the “time of initial thrombus formation” value is reported as “Neither the 0.5 mM/kg aspirin group or 35 μM/kg luteolin group prolonged”.
`c1ccc(Cn2nnc3c(Sc4nc5ccccc5o4)ncnc32)cc1` [VAS2870, reference compound]: the NOXs activity result in the data set with NOXs is recorded as “significantly decreased”.
